Experimental data as given in patent publication US9486506B2 (Novo Nordisk A/S, priority 2011, dated 2016).
Numbered stars: 1 amine (or outer) side, 2 acyl side, 3 side chain; on linkers, the order of the positions; unused ones are H or OH. Side chains are listed from the residue outwards. Peptide text beside a SMILES is read from it. * marks the point of attachment. X1 = O=C(CCCCCCCCCCCCCCCc1nnn[nH]1)NS(=O)(=O)CCCC(=O)*; C18 diacid = O=C(O)CCCCCCCCCCCCCCCCC(=O)*; γGlu = O=C(O)[C@H](CCC(=O)[*:2])N[*:1]; AEEA = NCCOCCOCC(=O)O

Assays:
glucagon receptor = target: T1, glucagon receptor (Homo sapiens, UniProt P47871); assay: Assay (I) Glucagon activity (cAMP biosensor, FLIPR); type: cell-based
T1 construct: expressed in transfected cells
T1 sequence (P47871 26-477): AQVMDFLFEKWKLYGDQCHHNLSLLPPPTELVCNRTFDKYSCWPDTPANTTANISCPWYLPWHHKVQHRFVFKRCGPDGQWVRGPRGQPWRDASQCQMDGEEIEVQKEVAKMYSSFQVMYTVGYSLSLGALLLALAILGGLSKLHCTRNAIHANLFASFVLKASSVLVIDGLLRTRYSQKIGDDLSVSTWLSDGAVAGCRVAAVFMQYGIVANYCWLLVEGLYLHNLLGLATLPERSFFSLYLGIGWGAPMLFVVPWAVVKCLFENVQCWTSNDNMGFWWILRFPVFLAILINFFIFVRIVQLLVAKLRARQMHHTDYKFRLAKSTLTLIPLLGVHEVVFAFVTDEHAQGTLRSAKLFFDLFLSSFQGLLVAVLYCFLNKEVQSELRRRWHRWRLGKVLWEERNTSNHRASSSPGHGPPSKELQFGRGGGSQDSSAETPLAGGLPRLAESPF

[1] = Assay (X) Chemical stability assessment by RP-UPLC; type: physicochemical; conditions: pH 8.15, 14 days at 37° C. vs 5° C., 333 μM

SMILES | EC50 (glucagon receptor) | Chemical stability [Purity loss/14 days 37 C.] [1]
CC(C)C[C@H](NC(=O)[C@H](CC(=O)O)NC(=O)[C@H](CC(C)C)NC(=O)[C@H](Cc1ccc(O)cc1)NC(=O)[C@H](CCCNC(=N)N)NC(=O)[C@H](CO)NC(=O)[C@H](Cc1ccc(O)cc1)NC(=O)[C@H](CC(=O)O)NC(=O)[C@H](CO)NC(=O)[C@@H](NC(=O)[C@H](Cc1ccccc1)NC(=O)[C@@H](NC(=O)CNC(=O)[C@H](CCC(N)=O)NC(=O)[C@H](CO)NC(=O)[C@@H](N)Cc1c[nH]cn1)[C@@H](C)O)[C@@H](C)O)C(=O)N[C@@H](CCCNC(=N)N)C(=O)N[C@@H](CCCNC(=N)N)C(=O)N[C@@H](C)C(=O)N[C@@H](CCC(N)=O)C(=O)N[C@@H](CC(=O)O)C(=O)N[C@@H](Cc1ccccc1)C(=O)N[C@H](C(=O)N[C@@H](CCCCNC(=O)CC[C@H](NC(=O)CC[C@H](NC(=O)CC[C@H](NC(=O)COCCOCCNC(=O)COCCOCCNC(=O)CC[C@H](NC(=O)CCCCCCCCCCCCCCCCC(=O)O)C(=O)O)C(=O)O)C(=O)O)C(=O)O)C(=O)N[C@@H](Cc1c[nH]c2ccccc12)C(=O)N[C@@H](CC(C)C)C(=O)N[C@@H](CC(C)C)C(=O)N[C@@H](CO)C(=O)N[C@H](C(=O)O)[C@@H](C)O)C(C)C [Example 45, N^ε24-[(4S)-4-carboxy-4-[[(4S)-4-carboxy-4-[[(4S)-4-carboxy-4-[[2-[2-[2-[[2-[2-[2-[[(4S)-4-carboxy-4-(17-carboxyheptadecanoylamino)butanoyl]amino]ethoxy]ethoxy]acetyl]amino]ethoxy]ethoxy]acetyl]amino]butanoyl]amino]butanoyl]amino]butanoyl]-[Arg12,Leu16,Lys24,Leu27,Ser28]-Glucagon] (H-HSQGTFTSDYSRYLDLRRAQDFVK([γGlu-γGlu-γGlu-AEEA-AEEA-γGlu-C18 diacid])WLLST-OH) | 0.243 nM | 3.3%
CC(C)C[C@H](NC(=O)[C@H](CC(=O)O)NC(=O)[C@H](CC(C)C)NC(=O)[C@H](Cc1ccc(O)cc1)NC(=O)[C@H](CCCNC(=N)N)NC(=O)[C@H](CO)NC(=O)[C@H](Cc1ccc(O)cc1)NC(=O)[C@H](CC(=O)O)NC(=O)[C@H](CO)NC(=O)[C@@H](NC(=O)[C@H](Cc1ccccc1)NC(=O)[C@@H](NC(=O)CNC(=O)[C@H](CCC(N)=O)NC(=O)[C@H](CO)NC(=O)[C@@H](N)Cc1c[nH]cn1)[C@@H](C)O)[C@@H](C)O)C(=O)N[C@@H](CCCNC(=N)N)C(=O)N[C@@H](CCCNC(=N)N)C(=O)N[C@@H](C)C(=O)N[C@@H](CCC(N)=O)C(=O)N[C@@H](CC(=O)O)C(=O)N[C@@H](Cc1ccccc1)C(=O)N[C@H](C(=O)N[C@@H](CCCCNC(=O)CC[C@H](NC(=O)CC[C@H](NC(=O)CC[C@H](NC(=O)CC[C@H](NC(=O)CCCCCCCCCCCCCCCCC(=O)O)C(=O)O)C(=O)O)C(=O)O)C(=O)O)C(=O)N[C@@H](Cc1c[nH]c2ccccc12)C(=O)N[C@@H](CC(C)C)C(=O)N[C@@H](CC(C)C)C(=O)N[C@@H](CO)C(=O)N[C@H](C(=O)O)[C@@H](C)O)C(C)C [Example 86, N^ε24-[(4S)-4-carboxy-4-[[(4S)-4-carboxy-4-[[(4S)-4-carboxy-4-[[(4S)-4-carboxy-4-(17-carboxyheptadecanoylamino)butanoyl]amino]butanoyl]amino]butanoyl]amino]butanoyl]-[Arg12,Leu16,Lys24,Leu27,Ser28]-Glucagon] (H-HSQGTFTSDYSRYLDLRRAQDFVK([γGlu-γGlu-γGlu-γGlu-C18 diacid])WLLST-OH) | 0.343 nM | 3.7%
CC(C)C[C@H](NC(=O)[C@H](Cc1ccc(O)cc1)NC(=O)[C@H](CCCCN)NC(=O)[C@H](CO)NC(=O)[C@H](Cc1ccc(O)cc1)NC(=O)[C@H](CC(=O)O)NC(=O)[C@H](CO)NC(=O)[C@@H](NC(=O)[C@H](Cc1ccccc1)NC(=O)[C@@H](NC(=O)CNC(=O)[C@H](CCC(N)=O)NC(=O)[C@H](CO)NC(=O)[C@@H](N)Cc1c[nH]cn1)[C@@H](C)O)[C@@H](C)O)C(=O)N[C@@H](CC(=O)O)C(=O)N[C@@H](C)C(=O)N[C@@H](CCCNC(=N)N)C(=O)N[C@@H](CCCNC(=N)N)C(=O)N[C@@H](C)C(=O)N[C@@H](CCC(N)=O)C(=O)N[C@@H](CC(=O)O)C(=O)N[C@@H](Cc1ccccc1)C(=O)N[C@H](C(=O)N[C@@H](CCCCNC(=O)CC[C@H](NC(=O)CC[C@H](NC(=O)COCCOCCNC(=O)COCCOCCNC(=O)CC[C@H](NC(=O)CCCCCCCCCCCCCCCCC(=O)O)C(=O)O)C(=O)O)C(=O)O)C(=O)N[C@@H](Cc1c[nH]c2ccccc12)C(=O)N[C@@H](CC(C)C)C(=O)N[C@@H](CC(C)C)C(=O)N[C@@H](CO)C(=O)N[C@H](C(=O)O)[C@@H](C)O)C(C)C [Example 43, N^ε24-[(4S)-4-carboxy-4-[[(4S)-4-carboxy-4-[[2-[2-[2-[[2-[2-[2-[[(4S)-4-carboxy-4-(17-carboxyheptadecanoylamino)butanoyl]amino]ethoxy]ethoxy]acetyl]amino]ethoxy]ethoxy]acetyl]amino]butanoyl]amino]butanoyl]-[Ala16,Lys24,Leu27,Ser28]-Glucagon] | 0.049 nM | 7.6%
CC(C)C[C@H](NC(=O)[C@H](Cc1ccc(O)cc1)NC(=O)[C@H](CCCCN)NC(=O)[C@H](CO)NC(=O)[C@@H](NC(=O)[C@H](CC(=O)O)NC(=O)[C@H](CO)NC(=O)[C@@H](NC(=O)[C@H](Cc1ccccc1)NC(=O)[C@@H](NC(=O)CNC(=O)[C@H](CCC(N)=O)NC(=O)[C@H](CO)NC(=O)[C@@H](N)Cc1c[nH]cn1)[C@@H](C)O)[C@@H](C)O)C(C)C)C(=O)N[C@@H](CCC(=O)O)C(=O)N[C@@H](CO)C(=O)N[C@@H](CCCNC(=N)N)C(=O)N[C@@H](CCCNC(=N)N)C(=O)N[C@@H](C)C(=O)N[C@@H](CCC(N)=O)C(=O)N[C@@H](CCC(=O)O)C(=O)N[C@@H](Cc1ccccc1)C(=O)N[C@H](C(=O)N[C@@H](CCCCNC(=O)CC[C@H](NC(=O)CC[C@H](NC(=O)CC[C@H](NC(=O)CC[C@H](NC(=O)CCCCCCCCCCCCCCCCC(=O)O)C(=O)O)C(=O)O)C(=O)O)C(=O)O)C(=O)N[C@@H](Cc1c[nH]c2ccccc12)C(=O)N[C@@H](CC(C)C)C(=O)N[C@@H](CC(C)C)C(=O)N[C@@H](CO)C(=O)N[C@H](C(=O)O)[C@@H](C)O)C(C)C [Example 50, N^ε24-[(4S)-4-carboxy-4-[[(4S)-4-carboxy-4-[[(4S)-4-carboxy-4-[[(4S)-4-carboxy-4-(17-carboxyheptadecanoylamino)butanoyl]amino]butanoyl]amino]butanoyl]amino]butanoy]-[Val10,Glu15,Glu21,Lys24,Leu27,Ser28]-Glucagon] (H-HSQGTFTSDVSKYLESRRAQEFVK([γGlu-γGlu-γGlu-γGlu-C18 diacid])WLLST-OH) | 0.118 nM | 4.8%
CC(C)C[C@H](NC(=O)[C@H](Cc1ccc(O)cc1)NC(=O)[C@H](CCCCN)NC(=O)[C@H](CO)NC(=O)[C@H](Cc1ccc(O)cc1)NC(=O)[C@H](CC(=O)O)NC(=O)[C@H](CO)NC(=O)[C@@H](NC(=O)[C@H](Cc1ccccc1)NC(=O)[C@@H](NC(=O)CNC(=O)[C@H](CCC(N)=O)NC(=O)[C@H](CO)NC(=O)[C@@H](N)Cc1c[nH]cn1)[C@@H](C)O)[C@@H](C)O)C(=O)N[C@@H](CCC(=O)O)C(=O)N[C@@H](CO)C(=O)N[C@@H](CCCNC(=N)N)C(=O)N[C@@H](CCCNC(=N)N)C(=O)N[C@@H](C)C(=O)N[C@@H](CCC(N)=O)C(=O)N[C@@H](CC(=O)O)C(=O)N[C@@H](Cc1ccccc1)C(=O)N[C@H](C(=O)N[C@@H](CCCCNC(=O)CC[C@H](NC(=O)CC[C@H](NC(=O)COCCOCCNC(=O)CCCS(=O)(=O)NC(=O)CCCCCCCCCCCCCCCc1nnn[nH]1)C(=O)O)C(=O)O)C(=O)N[C@@H](Cc1c[nH]c2ccccc12)C(=O)N[C@@H](CC(C)C)C(=O)N[C@@H](CC(C)C)C(=O)N[C@@H](CO)C(=O)N[C@H](C(=O)O)[C@@H](C)O)C(C)C [Example 66, N^ε24-[(4S)-4-carboxy-4-[[(4S)-4-carboxy-4-[[2-[2-[2-[4-[16-(1H-tetrazol-5-yl)hexadecanoylsulfarnoyl]butanoylamino]ethoxy]ethoxy]acetyl]amino]butanoyl]amino]butanoyl][Glu15,Lys24,Leu27,Ser28]-Glucagon] (H-HSQGTFTSDYSKYLESRRAQDFVK([γGlu-γGlu-AEEA-X1])WLLST-OH; N-terminus and C-terminus assumed) | 0.395 nM | 8.3%
CC(C)C[C@H](NC(=O)[C@H](Cc1c[nH]c2ccccc12)NC(=O)[C@H](CCCCNC(=O)CC[C@H](NC(=O)CC[C@H](NC(=O)COCCOCCNC(=O)COCCOCCNC(=O)CC[C@H](NC(=O)CCCCCCCCCCCCCCCCC(=O)O)C(=O)O)C(=O)O)C(=O)O)NC(=O)[C@@H](NC(=O)[C@H](Cc1ccccc1)NC(=O)[C@H](CC(=O)O)NC(=O)[C@H](CCC(N)=O)NC(=O)[C@H](C)NC(=O)[C@H](CCCNC(=N)N)NC(=O)[C@H](CCCNC(=N)N)NC(=O)[C@@H](NC(=O)[C@H](CC(=O)O)NC(=O)[C@H](CC(C)C)NC(=O)[C@H](Cc1ccc(O)cc1)NC(=O)[C@H](CCCNC(=N)N)NC(=O)[C@H](CO)NC(=O)[C@H](Cc1ccc(O)cc1)NC(=O)[C@H](CC(=O)O)NC(=O)[C@H](CO)NC(=O)[C@@H](NC(=O)[C@H](Cc1ccccc1)NC(=O)[C@@H](NC(=O)CNC(=O)[C@H](CCC(N)=O)NC(=O)[C@H](CO)NC(=O)[C@@H](N)Cc1c[nH]cn1)[C@@H](C)O)[C@@H](C)O)[C@@H](C)O)C(C)C)C(=O)N[C@@H](CC(C)C)C(=O)N[C@@H](CC(N)=O)C(=O)N[C@H](C(=O)O)[C@@H](C)O [Example 10, N^ε24-[(4S)-4-carboxy-4-[[(4S)-4-carboxy-4-[[2-[2-[2-[[2-[2-[2-[[(4S)-4-carboxy-4-(17-carboxyheptadecanoylamino)butanoyl]amino]ethoxy]ethoxy]acetyl]amino]ethoxy]ethoxy]acetyl]amino]butanoyl]amino]butanoyl]-[Arg^12,Thr^16,Lys^24,Leu^27]-Glucagon] (H-HSQGTFTSDYSRYLDTRRAQDFVK([γGlu-γGlu-AEEA-AEEA-γGlu-C18 diacid])WLLNT-OH) | 0.031 nM | 10.3%
